Data reported in patent US20040009952A1, “TGF-beta gene overexpression preventing substances for the treatment of disorders connected with pathological overexpression of TGF-beta” (priority 1998, published 2004).

Test system: TGF-β1 mRNA
Test: Glucose- or PMA-induced TGF-β1 mRNA overexpression in porcine mesangial cells (RT-PCR, capillary electrophoresis)
Assay type: cell-based
Settings: PMA; 10 μg/ml GAG; PMA alone 312; mean of 2 determinations
Text: To assess the inhibitory activity of the GAG action on TGF-β1 overexpression an in vitro assay was established. In this assay structurally distinct GAGs were investigated for their activity to inhibit stimulated TGF-β1 mRNA overexpression in cultured target cell. For the development of glomerulosclerosis (e.g. diabetes) mesangial cells are one major pathological target. Mesangial cells were isolated, characterized and grown as decribed by Kolm et al. Am. J. Physiol. 270: F812-F821, 1996. Cells were stimulated with PMA in the presence and absence of a variety of 10 μg/ml of GAGs and related compounds. Cellular mRNA TGF-β1I levels were determined as decribed in Example II.
The separation and the precise quantification of the PCR products was performed on a Biofocus 3000 capillary electrophoresis system equipped with a laser-induced fluorescence detector (Bio-Rad, Munich, Germany) using an argon-ion laser. Excitation power was approximately 3.5 mW at =488 nm, and fluorescence emission was detected after passing through a 520 nm band pass filter. […] For on-column DNA fluorescence labeling, 1 μl Syber Green I (Molecular probes, Eugene, Or, USA) was addes per ml. […] The migration time for the PCR products was 5.2 min for TGF-β1 (161 bp) and 6.5 min for GAPDH (983 bp) All peak areas were calculated automatically using Biofocus Integration Software. […]

chitosan-6-sulfate
TGF-β1 mRNA: 116 % of control
